Data reported in patent US20230152325A1, “Active Alpha-5-Beta-1 Integrin As A Biomarker For Enhancing Tumor Treatment Efficacy” (Institute For Cancer Research d/b/a The Research Institute …, priority 2016, published 2023).
Each block holds one compound with its values, some of them ahead of it.

Legend:
[1] = system: naïve pancreatic fibroblasts cultured within D-ECM; assay: ECM prompted myofibroblastic maintenance (α-SMA / F-actin immunofluorescence), PDAC model; type: cell-based, human; conditions: for D-ECM induced myofibroblastic phenotype (α-SMA expression / stress fiber localization), in words: naïve cells within D-ECM treated with the agent; for α-SMA expression, Median / α-SMA stress fiber localization, Median: normalized to untreated D-ECM = 1
Experimental: (§1) ECM prompted myofibroblastic maintenance. Human naïve or assorted murine fibroblasts were incubated for 45 minutes prior to overnight culturing within assorted ECMs, prepared as above, in the presence or absence of 50 μg/ml SNAKA51, 60 μg/m ALULA, 250 μg/m mAb16, or BMAS diluted as instructed by the manufacturer (Millipore, Temecula, Calif.), IgG control, DMSO or small molecule inhibitors FAK (PF573,228) and SRC family kinases (PP2). ECM-induced phenotypes were assessed via RT-qPCR, Western Blot or immunofluorescence.
(§2) Naïve/innate PDAC and RCC patient harvested fibroblasts were cultured overnight within normal (N-ECM) vs. desmoplastic (D-ECM or DECMs that were produced in the presence or absence of TGFβ1-receptor inhibition (D+TGFβi) or vehicle control (D+DMSO). Alternatively, naïve cells cultured within D-ECMs were treated with either TGFβ1-receptor inhibitor (TGFβ-i), vehicle (DMSO), functional blocking antibodies anti-αvβ5 integrin (alula, αvβ5-i), anti-α5β1 integrin (mAb16, α5β1-i), combinations of both functional blocking antibodies (β5-i+α5-i), functional stabilizing anti α5β1 integrin (SNAKA51; α5β1-act) or non-immunized isotypic antibodies (IgG). All samples were subjected to indirect immunofluorescent labeling of desmoplastic marker α-SMA and counterstained with fluorescently labeled phalloidin to detect actin stress fibers (F-actin) and determine the co-localization ratio. Monochromatic “heat map” images (see, FIG. 2A) represent α-SMA intensity values. A 255 tones intensity scale bar is shown to the right. A summary of all measured values is graphed in FIG. 2B. Additional monochromatic images indicative of double labeled staining for α-SMA and F-actin are in FIG. 2C while levels of total α-SMA localized at corresponding stress fibers are plotted in FIG. 2D. Untreated D-ECM conditions were included in all experiments summarized in this figure and serve as normalization (1 arbitrary unit; a.u.) controls. Matching values including statistical significances are listed in accompanying Table 1. All scale bars represent 50 μm. TGFβ activity was needed to maintain functional D-ECM production but was dispensable when testing D-ECM induced responses, while the later were obstructed by αvβ5 integrin inhibition or active α5β1 integrin stabilization.

[2] = system: naïve renal fibroblasts cultured within D-ECM; assay: ECM prompted myofibroblastic maintenance (α-SMA / F-actin immunofluorescence), RCC model; type: cell-based, human; conditions: for D-ECM induced myofibroblastic phenotype (α-SMA expression / stress fiber localization), in words: naïve cells within D-ECM treated with the agent; for α-SMA expression, Median / α-SMA stress fiber localization, Median: normalized to untreated D-ECM = 1
Experimental: as §1, §2

[3] = system: PDAC desmoplastic fibroblasts (D-ECM production); assay: ECM fiber orientation analysis of D-ECM produced by PDAC-associated fibroblasts; type: cell-based, human
Experimental: Un-extracted 3D cultures were either processed for phenotypic characterization, ECM alignment measurements, or decellularized to assess maintenance of myofibroblastic phenotype. ECM fiber orientation analysis. Fibronectin channel monochromatic images were analyzed via Imager OrientationJ plugin. Numerical outputs were normalized by setting mode angles to 0° and correcting angle spreads to fluctuate between −90° and 90°. Angle spreads for each experimental condition, corresponding to a minimum of three experimental repetitions and five image acquisitions per condition were plotted and their standard deviations calculated. The percentage of fibers oriented between −15° and 15° was determined for each normalized image-obtained data. FIGS. 1A through 1E show desmoplastic (D)-ECM remodeling by TGFβ-blockage bestows normal (N)-ECM-like phenotypes. Fibroblasts were isolated from pancreatic ductal adenocarcinoma (PDAC) and renal cell carcinoma (RCC) surgical samples and their ECM producing phenotypes were assessed prior to ECM decellularization via fibroblastic extraction. […] Complementary low/heterogeneous vs. high/organized α-SMA levels, with heterogeneous/round vs. elongated/spindled cell nuclei, and disorganized/woven vs. parallel/aligned ECM fibers are evident in the representative images. […] Scale bars represent 50 μm.

[4] = system: TGFβ levels stored within ECMs; assay: TGFβ protein levels in 3D unextracted culture lysates by ELISA; type: cell-based, human; conditions: inhibitor used during D-ECM production; <0.0001
Description: (§3) FIGS. 7A through 7F show characterization of human fibroblastic cells isolated from PDAC and RCC surgical samples. […] Isolated cells were probed for desmoplastic markers α-SMA and palladin while Panc1 (a pancreatic cancer cell line) cells were used as epithelial to mesenchyme […] (EMT) controls known to express both epithelial and mesenchymal markers. Assorted markers are shown in white while counterstained Hoechst identified nuclei are shown in yellow. […] TGFβ inhibition causes disorganization of desmoplastic and ablation of normal ECMs. […] Data were normalized to total protein concentration and to D-ECM readouts; results are expressed as arbitrary units (A.U.). […] All scale bars represent 50 μm.

[5] = system: normal fibroblasts (N-ECM assembly); assay: N-ECM assembly by normal fibroblasts under TGFβ1-receptor blockage; type: cell-based, human; conditions: blockage of TGFβ signaling during ECM production
Description: (§4) Preparation of fibroblasts-derived 3D ECMs. Extracellular matrices (ECMs) were obtained in the presence or absence of TGFβ1R small molecule inhibitor SB431542, DMSO, conformation-dependent anti-active α5 integrin functional antibody (SNAKA51), functional-blocking anti αvβ5 integrin (ALULA), or species matched non-immunized isotypic antibodies. Un-extracted 3D cultures were either processed for phenotypic characterization, ECM alignment measurements, or decellularized to assess maintenance of myofibroblastic phenotype.
as §3

[6] = system: RCC desmoplastic fibroblasts (D-ECM production); assay: ECM fiber orientation analysis of D-ECM produced by RCC-associated fibroblasts; type: cell-based, human
Description: as §4
ECM fiber orientation analysis. Fibronectin channel monochromatic images were analyzed via Imager OrientationJ plugin. […] Angle spreads for each experimental condition, corresponding to a minimum of three experimental repetitions and five image acquisitions per condition were plotted and their standard deviations calculated. The percentage of fibers oriented between −15° and 15° was determined for each normalized image-obtained data.
FIGS. 1A through 1E show desmoplastic (D)-ECM remodeling by TGFβ-blockage bestows normal (N)-ECM-like phenotypes. Fibroblasts were isolated from pancreatic ductal adenocarcinoma (PDAC) and renal cell carcinoma (RCC) surgical samples and their ECM producing phenotypes were assessed prior to ECM decellularization via fibroblastic extraction. […]

[7] = molecular target: alpha-v-beta-5 (αvβ5) integrin, human (human) (UniProt P06756); assay: cell-based or functional assay
[8] = molecular target: αvβ5 integrin, murine (murine) (UniProt P43406); assay: cell-based or functional assay
Sequence of UniProt P43406 (P43406 31-1044, chain 1 of 2): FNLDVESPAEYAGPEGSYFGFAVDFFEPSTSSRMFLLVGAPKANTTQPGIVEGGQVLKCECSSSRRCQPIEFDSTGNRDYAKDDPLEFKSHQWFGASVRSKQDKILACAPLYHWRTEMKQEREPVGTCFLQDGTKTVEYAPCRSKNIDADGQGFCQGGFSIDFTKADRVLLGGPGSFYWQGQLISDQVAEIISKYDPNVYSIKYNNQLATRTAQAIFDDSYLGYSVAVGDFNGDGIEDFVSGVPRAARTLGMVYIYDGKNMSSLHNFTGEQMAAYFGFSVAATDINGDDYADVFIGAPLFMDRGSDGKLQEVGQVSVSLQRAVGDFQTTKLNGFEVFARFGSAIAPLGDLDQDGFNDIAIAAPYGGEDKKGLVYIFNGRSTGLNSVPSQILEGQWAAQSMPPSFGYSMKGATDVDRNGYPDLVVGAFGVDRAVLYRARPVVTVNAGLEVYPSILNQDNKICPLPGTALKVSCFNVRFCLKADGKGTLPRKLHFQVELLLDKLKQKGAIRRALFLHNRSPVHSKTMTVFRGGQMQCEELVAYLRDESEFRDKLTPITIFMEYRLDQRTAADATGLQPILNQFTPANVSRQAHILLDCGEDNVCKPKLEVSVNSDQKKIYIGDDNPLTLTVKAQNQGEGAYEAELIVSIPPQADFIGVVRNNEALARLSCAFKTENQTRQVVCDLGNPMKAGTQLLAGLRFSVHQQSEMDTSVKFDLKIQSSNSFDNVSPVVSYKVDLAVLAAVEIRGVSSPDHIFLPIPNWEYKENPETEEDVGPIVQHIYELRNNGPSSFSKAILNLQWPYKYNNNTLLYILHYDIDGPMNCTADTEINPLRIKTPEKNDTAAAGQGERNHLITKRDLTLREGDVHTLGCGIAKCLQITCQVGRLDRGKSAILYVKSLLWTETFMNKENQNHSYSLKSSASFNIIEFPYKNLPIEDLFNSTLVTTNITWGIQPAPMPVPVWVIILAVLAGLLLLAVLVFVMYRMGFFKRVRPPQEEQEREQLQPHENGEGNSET
Sequence of UniProt P43406 (O70309 24-798, chain 2 of 2, further chain): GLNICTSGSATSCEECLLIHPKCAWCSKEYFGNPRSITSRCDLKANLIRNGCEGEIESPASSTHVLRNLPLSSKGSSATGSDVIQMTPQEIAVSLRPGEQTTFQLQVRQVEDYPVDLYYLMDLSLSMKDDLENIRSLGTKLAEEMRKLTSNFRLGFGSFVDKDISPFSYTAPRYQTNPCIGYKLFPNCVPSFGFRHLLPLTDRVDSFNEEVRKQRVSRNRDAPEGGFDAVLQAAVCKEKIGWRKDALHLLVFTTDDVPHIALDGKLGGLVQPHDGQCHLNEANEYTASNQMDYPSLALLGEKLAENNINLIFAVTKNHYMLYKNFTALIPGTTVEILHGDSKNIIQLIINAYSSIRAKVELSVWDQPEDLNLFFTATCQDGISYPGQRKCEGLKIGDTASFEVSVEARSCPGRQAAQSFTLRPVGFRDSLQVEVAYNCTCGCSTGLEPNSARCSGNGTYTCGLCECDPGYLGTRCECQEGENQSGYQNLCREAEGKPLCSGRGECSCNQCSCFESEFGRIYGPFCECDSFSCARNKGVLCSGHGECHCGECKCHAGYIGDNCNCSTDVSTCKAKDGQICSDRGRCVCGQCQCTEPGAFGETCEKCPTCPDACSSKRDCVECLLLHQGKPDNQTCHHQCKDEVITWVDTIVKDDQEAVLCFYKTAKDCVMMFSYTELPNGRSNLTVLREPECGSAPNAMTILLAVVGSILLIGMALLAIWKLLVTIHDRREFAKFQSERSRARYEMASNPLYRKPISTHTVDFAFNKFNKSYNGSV

[9] = molecular target: alpha-5-beta-1 (α5β1) integrin, human (human) (UniProt P08648); assay: cell-based or functional assay
Sequence of UniProt P08648 (P08648 42-1049, chain 1 of 2): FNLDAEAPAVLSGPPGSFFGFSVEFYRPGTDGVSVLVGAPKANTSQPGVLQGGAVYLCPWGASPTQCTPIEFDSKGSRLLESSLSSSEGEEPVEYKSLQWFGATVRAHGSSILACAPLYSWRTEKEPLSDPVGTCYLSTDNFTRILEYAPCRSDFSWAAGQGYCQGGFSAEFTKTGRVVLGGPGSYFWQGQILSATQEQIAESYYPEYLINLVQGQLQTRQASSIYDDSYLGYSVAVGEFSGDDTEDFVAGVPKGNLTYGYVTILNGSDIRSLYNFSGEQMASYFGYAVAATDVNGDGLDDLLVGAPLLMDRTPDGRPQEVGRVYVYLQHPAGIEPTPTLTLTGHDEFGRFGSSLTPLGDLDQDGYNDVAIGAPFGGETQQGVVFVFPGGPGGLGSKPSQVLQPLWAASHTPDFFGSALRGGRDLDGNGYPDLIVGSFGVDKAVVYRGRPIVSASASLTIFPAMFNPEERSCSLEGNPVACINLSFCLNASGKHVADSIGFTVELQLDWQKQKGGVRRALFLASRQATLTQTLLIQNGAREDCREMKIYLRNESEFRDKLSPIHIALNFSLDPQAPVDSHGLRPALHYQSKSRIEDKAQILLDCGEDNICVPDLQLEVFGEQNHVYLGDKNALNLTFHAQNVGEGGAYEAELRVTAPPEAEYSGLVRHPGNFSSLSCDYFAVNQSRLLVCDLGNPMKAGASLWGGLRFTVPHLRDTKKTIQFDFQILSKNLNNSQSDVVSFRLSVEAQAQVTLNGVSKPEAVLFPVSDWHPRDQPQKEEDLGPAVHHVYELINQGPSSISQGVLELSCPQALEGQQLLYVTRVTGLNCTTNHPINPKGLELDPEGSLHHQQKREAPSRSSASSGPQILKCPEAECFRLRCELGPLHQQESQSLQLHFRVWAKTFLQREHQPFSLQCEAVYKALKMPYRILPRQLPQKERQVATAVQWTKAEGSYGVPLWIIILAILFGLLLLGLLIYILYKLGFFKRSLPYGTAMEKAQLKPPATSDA
Sequence of UniProt P08648 (P05556 21-798, chain 2 of 2, further chain): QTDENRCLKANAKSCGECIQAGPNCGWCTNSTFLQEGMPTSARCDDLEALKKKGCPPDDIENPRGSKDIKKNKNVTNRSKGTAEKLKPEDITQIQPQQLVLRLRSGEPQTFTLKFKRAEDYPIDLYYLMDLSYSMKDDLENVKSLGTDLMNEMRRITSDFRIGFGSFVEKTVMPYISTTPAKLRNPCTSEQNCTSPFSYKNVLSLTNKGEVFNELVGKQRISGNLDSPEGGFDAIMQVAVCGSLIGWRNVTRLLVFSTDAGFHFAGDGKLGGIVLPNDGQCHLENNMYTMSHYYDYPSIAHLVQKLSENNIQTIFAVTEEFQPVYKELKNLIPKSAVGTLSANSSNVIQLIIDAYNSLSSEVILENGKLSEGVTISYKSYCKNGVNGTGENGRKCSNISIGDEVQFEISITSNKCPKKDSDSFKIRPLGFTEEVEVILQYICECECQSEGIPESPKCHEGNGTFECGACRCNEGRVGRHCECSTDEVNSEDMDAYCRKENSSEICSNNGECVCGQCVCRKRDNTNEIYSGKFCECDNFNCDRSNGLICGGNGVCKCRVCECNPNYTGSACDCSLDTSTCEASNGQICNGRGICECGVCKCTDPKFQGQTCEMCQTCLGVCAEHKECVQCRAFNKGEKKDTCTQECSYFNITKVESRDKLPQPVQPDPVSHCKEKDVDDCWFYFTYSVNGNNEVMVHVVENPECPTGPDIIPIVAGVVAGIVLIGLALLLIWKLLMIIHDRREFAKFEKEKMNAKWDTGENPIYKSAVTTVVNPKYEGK

[10] = SB-431542 during D-ECM production
[11] = PDAC, naïve cells within D-ECM treated overnight
[12] = PDAC, naïve fibroblasts in D-ECM that was produced in presence of TGFβ1-receptor inhibitor
[13] = RCC, naïve cells within D-ECM treated overnight
[14] = RCC, naïve fibroblasts in D-ECM that was produced in presence of TGFβ1-receptor inhibitor

Compound: CC(C)(C)n1nc(-c2ccc(Cl)cc2)c2c(N)ncnc21 [PP2]
D-ECM induced myofibroblastic phenotype (α-SMA expression / stress fiber localization), in words ([1]; PDAC): D-ECM-induced phenotype was lost | D-ECM induced myofibroblastic phenotype (α-SMA expression / stress fiber localization), in words ([2]; RCC): D-ECM-induced phenotype was lost

de novo N-ECM assembly [5]: prevented de novo N-ECM assembly
Compound: NC(=O)c1ccc(-c2nc(-c3ccc4c(c3)OCO4)c(-c3ccccn3)[nH]2)cc1 [SB-431542]
fiber alignment (fibers distributed at 15° from the mode angle) [3, 10]: 36% | ECM fiber alignments reduced to ([3]; TGFβ blockage during D-ECM production, n=21, P<0.0001): 47% | reduction of TGFβ levels stored within ECMs [4]: 60% | stress fiber localization of α-SMA relative to the untreated D-ECM ([1]; PDAC, D-ECM produced under TGFβ blockage, re-seeded with naïve fibroblasts): 55% | α-SMA expression, Median [1, 11]: 0.62 a.u. | α-SMA stress fiber localization, Median [1, 11]: 0.96 a.u. | D-ECM induced myofibroblastic phenotype (α-SMA expression / stress fiber localization), in words ([1]; PDAC): comparable | α-SMA expression, Median [1, 12]: 0.73 a.u. | α-SMA stress fiber localization, Median [1, 12]: 0.55 a.u. | α-SMA expression levels relative to untreated conditions ([1]; PDAC, naïve fibroblasts plated in D-ECM in presence of the agent): 62% | myofibroblastic phenotype induced de novo by the extracted ECM, in words ([1]; naïve pancreatic fibroblasts re-seeded in D-ECM produced in presence of SB-431542): comparable phenotypes | stress fiber localization of α-SMA relative to the untreated D-ECM ([2]; RCC, D-ECM produced under TGFβ blockage, re-seeded with naïve fibroblasts): 72% | α-SMA expression, Median [2, 13]: 1.00 a.u. | α-SMA stress fiber localization, Median [2, 13]: 1.03 a.u. | D-ECM induced myofibroblastic phenotype (α-SMA expression / stress fiber localization), in words ([2]; RCC): comparable | α-SMA expression, Median [2, 14]: 0.41 a.u. | α-SMA stress fiber localization, Median [2, 14]: 0.72 a.u. | α-SMA expression levels relative to untreated conditions ([2]; RCC, naïve fibroblasts plated in D-ECM in presence of the agent): 100% | myofibroblastic phenotype induced de novo by the extracted ECM, in words ([2]; naïve renal fibroblasts re-seeded in D-ECM produced in presence of SB-431542): comparable phenotypes | fiber alignment (fibers distributed at 15° from the mode angle) [6, 10]: 47% | ECM fiber alignments reduced to ([6]; TGFβ blockage during D-ECM production, n=26, P=0.0028): 51%

Compound: C[C@@H]1C[C@@H]([C@H](O)CC2CC(=O)NC(=O)C2)C(=O)[C@@H](C)C1 [cycloheximide]
α-SMA protein outcome in naïve fibroblasts re-plated in D-ECM, in words ([1]; overnight treatment with protein synthesis inhibitor, model not specified): did not influence outcomes

intracellular levels of α5β1 integrin activity, PDAC [7]: 0% | intracellular levels of α5β1 integrin activity, RCC [7]: 60% | α5β1 integrin activity localized away from 3D-adhesions, PDAC (relative to D-ECM, a.u.=1) [7]: 0.32 a.u. | α5β1 integrin activity localized away from 3D-adhesions, RCC (relative to D-ECM, a.u.=1) [7]: 0.82 a.u. | α-SMA expression, PDAC, median (normalized to untreated D-ECM) [7]: 0.29 a.u. | α-SMA expression, RCC, median (normalized to untreated D-ECM) [7]: 0.58 a.u. | α-SMA stress fiber localization, PDAC, median (normalized to untreated D-ECM) [7]: 0.54 a.u. | α-SMA stress fiber localization, RCC, median (normalized to untreated D-ECM) [7]: 0.67 a.u. | percentage of FAK-/- murine fibroblasts in mD-ECM undergoing myofibroblastic activation [8]: 14% | percentage of murine cells in mD-ECM with myofibroblast activation under FAK inhibitor PF573,228 [8]: 23% | percentage of murine fibroblasts in mD-ECM undergoing myofibroblastic activation [8]: 55%
Compound: ALULA, functional-blocking anti αvβ5 integrin antibody

α-SMA expression, PDAC, median (normalized to untreated D-ECM) [9]: 0.32 a.u. | α-SMA expression, RCC, median (normalized to untreated D-ECM) [9]: 0.43 a.u. | α-SMA stress fiber localization, PDAC, median (normalized to untreated D-ECM) [9]: 0.56 a.u. | α-SMA stress fiber localization, RCC, median (normalized to untreated D-ECM) [9]: 0.93 a.u.
Compound: SNAKA51, conformation-dependent anti-active α5 integrin functional antibody

α-SMA expression, PDAC, median (normalized to untreated D-ECM) [9]: 0.71 a.u. | α-SMA expression, RCC, median (normalized to untreated D-ECM) [9]: 0.53 a.u. | α-SMA stress fiber localization under FAK inhibitor PF573,228, PDAC [9]: 49% | α-SMA stress fiber localization under FAK inhibitor PF573,228, RCC [9]: 45% | α-SMA stress fiber localization, PDAC, median (normalized to untreated D-ECM) [9]: 0.77 a.u. | α-SMA stress fiber localization, RCC, median (normalized to untreated D-ECM) [9]: 0.89 a.u.
Compound: mAb16, functional blocking anti-α5β1 integrin antibody
